Source: patent publication US10077289B2, “Cyclosporins modified on the MeBmt sidechain by heterocyclic rings” (priority 2015, dated 2018)
In brackets after ≈: the same amount, converted by molar mass. Like-named read-outs stand apart in the source and are kept apart here.

How the values were obtained:
[1] = target: Human recombinant cyclophilin A (Cyp A) (Homo sapiens (Human), UniProt P62937); test: Protease-free PPIase assay
Description: Protease-Free PPIase Assay
The protease-free PPIase assay measures the rate of cis to trans conversion of a peptide substrate catalyzed by the enzyme cyclophilin A. Addition of a cyclophilin A inhibitor (e.g., a test compound) slows the catalyzed rate and a Ki value is obtained.
35 mM HEPES pH 7.8, filtered through a 0.2 μm filter. 50 μM DTT was added prior to use each day and then the buffer was stored on ice.
Human recombinant cyclophilin A (Cyp A) (Sigma C3805) enzyme was diluted to 1 μM with enzyme dilution buffer (20 mM HEPES pH 7.8, 40% glycerol, 50 μM DTT and 1 μM BSA) and stored at −20° C.
Succinimide-Ala-Ala-Pro-Phe-p-nitroanilide (SUC-AAPF-pNA) (from Bachem AG, L-1400), 20 mg/ml prepared in 0.5 M LiCl in trifluoroethanol.
The temperature is monitored by the use of a temperature probe. To prevent UV degradation of test compounds, the light below 290 nm was blocked using a glass slide in the light path. 1.5 ml of the assay buffer was put into a 3 ml quartz cuvette and cooled to 10.0±0.1° C. while stirring (vigorous but not so fast as to produce cavitation). The inhibitor was diluted in 100% DMSO, and then added to the assay to a maximum final concentration of 0.5% DMSO in the assay. A blank spectrum was obtained, then 3 μL of enzyme was added (2 nM final concentration) and then 3 μL substrate (60 μM final concentration) added. The absorbance was measured at 330 nm for 300 s or 500 s for blank runs (NOTE: the substrate must be added in one quick injection and the measurements started immediately to minimize mixing errors).
A first order rate equation was fitted to the absorbance data, for each concentration of inhibitor, to obtain the rate constant (the first 10 to 15 seconds were excluded as mixing causes errors in this portion of curve). The catalytic rate was calculated from the enzymatic rate constant minus the background rate constant. An exponential curve was generated using the catalytic rate constants versus the inhibitor concentration to obtain the Ki value for the inhibitor. The Ki value is indicative of the binding affinity between the test compound and cyclophilin A.

[2] = target: calcineurin/cyclophilin A (Homo sapiens (Human), UniProt P62937+P63098+Q08209); test: Calcineurin Phosphatase (CaN) Assay (+CypA); assay type: biochemical; details: in the presence of Cyp A, 1:1 complex with inhibitor; read-out: Calcineurin Phosphatase (CaN) Assay (+CypA) IC50
Excerpt: Calcineurin Phosphatase (CaN) Assay
The calcineurin phosphatase assay is a means for estimating the immunosuppressive potential of a test compound. Calcineurin is a serine-threonine protein phosphatase that on activation dephosphorylates members of the nuclear factor of activated T cells (NFAT), which are important in T lymphocyte activation.
To investigate the immunosuppressive potential of exemplary compounds of Formula I, which are cyclosporin analogs, their ability to inhibit calcineurin activity was measured in the presence and absence of Cyp A.
The CaN assay kit used is based on a colorimetric assay for measuring calcineurin phosphatase activity, and it is commercially available (Enzo Life Sciences and Calbiochem). Calmodulin is also required for calcineurin activity and RII phosphopeptide is used as an efficient peptide substrate for calcineurin. […] The detection of free phosphate released is based on the classic Malachite green assay.
Enzo Life Sciences CaN Assay Kit: BML-AK804
Malachite Green: BIOMOL Green™ reagent
Calmodulin (Human, recombinant): was thawed on ice, diluted 1:50 with 2× assay buffer, and then stored on ice.
Calcineurin: was thawed quickly, stored on ice immediately, diluted 1:12.5 with 1× assay buffer, and then stored on ice.
R-II Substrate: 915 μL ultrapure water (UPW) was added to the 1.5 mg vial substrate to give a final concentration of 0.75 mM.
Inhibitors: 2.5 mM inhibitor in 100% DMSO.
Cyp A: recombinant human CypA (Sigma C3805), 1 mg/ml; Recombinant 6-His tagged CypA prepared by the University of Edinburgh was also used.
Inhibitor dilutions: inhibitor compounds were diluted in UPW in polypropylene low-binding 96 well plates at 5× the final assay concentration.
Assay Setup: using the half area 96 well plates supplied with the kit, 10 μl UPW was added to duplicate wells to provide the non-inhibited control. 10 μl of the inhibitor or the inhibitor/Cyp A complex was added to the appropriate sample wells. 25 μl of the 2× assay buffer with CaM was added to all wells, then 5 μl of CaN was added to all wells (40 U per well final concentration) except duplicate ‘no calcineurin blank’ wells to which 5 μL 1× assay buffer was added. The assay plate was placed in an oven at 30° C. for 15 minutes to equilibrate to the reaction temperature. The reaction was started by the addition of 10 μl RII-peptide (0.15 mM final concentration). The reaction was allowed to proceed at 30° C. for a time period in which the reaction is linear for about 60 minutes. The reaction was then terminated by adding 100 μl of the Malachite Green reagent. The color was allowed to develop for 15-30 minutes at room temperature before the absorbance at 620 nm was measured using a plate reader (Molecular Devices—SpectraMax M5). The data were analyzed by subtracting ‘no Calcineurin blank’ from all the absorbance readings and plotting the background corrected absorbances against Log10 inhibitor concentration. A sigmoidal-dose response curve was fitted to the data using GraphPad Prism Software.
It exerts its immunosuppressive activity by binding to cyclophilin A to form a complex, which then binds to calcineurin and thereby inhibits calcineurin activity.

[3] = Water Solubility Assay (measured in pH 7.8 buffer); assay type: physicochemical; details: kinetic from dmso stock, 25 °C
Description: Water Solubility Assay (Measured in pH 7.8 Buffer)
The aqueous solubility of a compound of Formula I in buffer (pH 7.8) was measured by recording the onset of precipitation of the compound as a function of increasing concentration. The onset of precipitation, if it occurred, was detected by an increase in absorbance at 650 nm.
Assay Buffer: 35 mM HEPES pH 7.8
Stock solutions of Control and Test Compounds: 10 mM in 100% DMSO.
10 mM stock solutions of control and test compounds were prepared in 100% DMSO.
Assay buffer (247.5 μl) was placed into flat bottomed transparent 96-well plate. For blank samples DMSO (2.5 μl) was added. For test and control samples 2.5 μl of the appropriate DMSO dilution stocks were added to the appropriate well. All test and control compounds were performed in triplicate.
The plates were sealed with adhesive plate seal and shaken at 250 rpm at 25° C. for 18 h on a plate shaker. After incubation the plate seals were taken off and any bubbles observed in wells removed. The plates were read on a SpectraMaxM5 with a 5 s pre-shake at 650 nm. Data files were transferred to the appropriate worksheet and the solubility range of the compounds was calculated from the data. The values shown in the Tables indicate the concentration in μM (micromolar) at which the compound remains in solution.

Row | Structure (SMILES) | IC50 [2] | Ki [1] | solubility at 18 h ([3]; pH 7.8, aqueous buffer) | Ki ([1]; read-out: Protease-free PPIase Assay Ki, human recombinant Cyp A, 10 °C) | solubility at 18 h ([3]; 35 mM HEPES buffer pH 7.8, aqueous buffer, 35 mM HEPES pH 7.8, 1% DMSO, 18 h, read-out: Water Solubility Assay, concentration at which the compound remains in solution)
1 | CC[C@H]1NC(=O)[C@@H]([C@H](O)[C@H](C)CCCc2ccc(OC)cn2)N(C)C(=O)[C@@H](C(C)C)N(C)C(=O)[C@@H](CC(C)C)N(C)C(=O)[C@@H](CC(C)C)N(C)C(=O)[C@H](C)NC(=O)[C@@H](C)NC(=O)[C@@H](CC(C)C)N(C)C(=O)[C@@H](C(C)C)NC(=O)[C@H](CC(C)C)N(C)C(=O)[C@@H](C)N(C)C1=O [Compound 16, [(2S,3R,4R)-3-Hydroxy-4-methyl-2-(methylamino)-7-(5-methoxy-pyridin-2-yl)-heptanoic acid]^1 [(R)-methyl-Sar]^3 cyclosporin A] | > 10000 nM |  |  | 0.72 nM | 25 to 50 µM (≈ 32.8 to 65.6 µg/mL)
2 | CC[C@H]1NC(=O)[C@@H]([C@H](O)[C@H](C)CCCc2cn(C)cn2)N(C)C(=O)[C@@H](C(C)C)N(C)C(=O)[C@@H](CC(C)C)N(C)C(=O)[C@@H](CC(C)C)N(C)C(=O)[C@H](C)NC(=O)[C@@H](C)NC(=O)[C@@H](CC(C)C)N(C)C(=O)[C@@H](C(C)C)NC(=O)[C@H](CC(C)C)N(C)C(=O)[C@@H](C)N(C)C1=O [Compound 20, [(2S,3R,4R)-3-Hydroxy-7-(1-methyl-1H-imidazol-4-yl)-4-methyl-2-(methylamino)heptanoic acid]^1 [(R)-methyl-Sar]^3 cyclosporin A] | > 10000 nM | 5.7 nM | > 100 µM |  | 
3 | CC[C@H]1NC(=O)[C@@H]([C@H](O)[C@H](C)CCCc2ccn(C)n2)N(C)C(=O)[C@@H](C(C)C)N(C)C(=O)[C@@H](CC(C)C)N(C)C(=O)[C@@H](CC(C)C)N(C)C(=O)[C@H](C)NC(=O)[C@@H](C)NC(=O)[C@@H](CC(C)C)N(C)C(=O)[C@@H](C(C)C)NC(=O)[C@H](CC(C)C)N(C)C(=O)[C@@H](C)N(C)C1=O [Compound 25, [(2S,3R,4R)-3-Hydroxy-4-methyl-2-(methylamino)-7-(1-methylpyrazol-3-yl)heptanoic acid]^1 [(R)-methyl-Sar]^3 cyclosporin A] | 1460 nM | 3.8 nM | > 100 µM |  | 

Now from value to molecule, other results behind:

Row | IC50 [2] | Ki [1] | solubility at 18 h ([3]; pH 7.8, aqueous buffer) | Structure (SMILES) | Ki ([1]; read-out: Protease-free PPIase Assay Ki, human recombinant Cyp A, 10 °C) | solubility at 18 h ([3]; 35 mM HEPES buffer pH 7.8, aqueous buffer, 35 mM HEPES pH 7.8, 1% DMSO, 18 h, read-out: Water Solubility Assay, concentration at which the compound remains in solution)
4 | 9250 nM | 3.9 nM | 25 to 50 µM (≈ 32.4 to 64.8 µg/mL) | CC[C@H]1NC(=O)[C@@H]([C@H](O)[C@H](C)CCCc2ccnc(C)c2)N(C)C(=O)[C@@H](C(C)C)N(C)C(=O)[C@@H](CC(C)C)N(C)C(=O)[C@@H](CC(C)C)N(C)C(=O)[C@H](C)NC(=O)[C@@H](C)NC(=O)[C@@H](CC(C)C)N(C)C(=O)[C@@H](C(C)C)NC(=O)[C@H](CC(C)C)N(C)C(=O)[C@@H](C)N(C)C1=O [Compound 17, [(2S,3R,4R)-3-Hydroxy-4-methyl-2-(methylamino)-7-(2-methyl-pyridin-4-yl)-heptanoic acid]^1 [(R)-methyl-Sar]^3 cyclosporin A] |  | 
5 | 5800 nM | 2.2 nM | 50 to 75 µM (≈ 64.1 to 96.2 µg/mL) | CC[C@H]1NC(=O)[C@@H]([C@H](O)[C@H](C)CCCc2cnccn2)N(C)C(=O)[C@@H](C(C)C)N(C)C(=O)[C@@H](CC(C)C)N(C)C(=O)[C@@H](CC(C)C)N(C)C(=O)[C@H](C)NC(=O)[C@@H](C)NC(=O)[C@@H](CC(C)C)N(C)C(=O)[C@@H](C(C)C)NC(=O)[C@H](CC(C)C)N(C)C(=O)[C@@H](C)N(C)C1=O [Compound 18, [(2S,3R,4R)-3-Hydroxy-4-methyl-2-(methylamino)-7-(pyrazin-2-yl)-heptanoic acid]^1 [(R)-methyl-Sar]^3 cyclosporin A] |  | 
6 | > 10000 nM | 3.2 nM | > 100 µM | CC[C@H]1NC(=O)[C@@H]([C@H](O)[C@H](C)CCCc2cccnn2)N(C)C(=O)[C@@H](C(C)C)N(C)C(=O)[C@@H](CC(C)C)N(C)C(=O)[C@@H](CC(C)C)N(C)C(=O)[C@H](C)NC(=O)[C@@H](C)NC(=O)[C@@H](CC(C)C)N(C)C(=O)[C@@H](C(C)C)NC(=O)[C@H](CC(C)C)N(C)C(=O)[C@@H](C)N(C)C1=O [Compound 21, [(2S,3R,4R)-3-Hydroxy-4-methyl-2-(methylamino)-7-(pyridazin-3-yl)-heptanoic acid]^1 [(R)-methyl-Sar]^3 cyclosporin A] |  | 
7 | 1160 nM | 3.2 nM | > 100 µM | CC[C@H]1NC(=O)[C@@H]([C@H](O)[C@H](C)CCCc2ncccn2)N(C)C(=O)[C@@H](C(C)C)N(C)C(=O)[C@@H](CC(C)C)N(C)C(=O)[C@@H](CC(C)C)N(C)C(=O)[C@H](C)NC(=O)[C@@H](C)NC(=O)[C@@H](CC(C)C)N(C)C(=O)[C@@H](C(C)C)NC(=O)[C@H](CC(C)C)N(C)C(=O)[C@@H](C)N(C)C1=O [Compound 22, [(2S,3R,4R)-3-Hydroxy-4-methyl-2-(methylamino)-7-(pyrimidin-2-yl)-heptanoic acid]^1 [(R)-methyl-Sar]^3 cyclosporin A] |  | 
8 | 3340 nM | 2.1 nM | > 100 µM | CC[C@H]1NC(=O)[C@@H]([C@H](O)[C@H](C)CCCc2ccnn2C)N(C)C(=O)[C@@H](C(C)C)N(C)C(=O)[C@@H](CC(C)C)N(C)C(=O)[C@@H](CC(C)C)N(C)C(=O)[C@H](C)NC(=O)[C@@H](C)NC(=O)[C@@H](CC(C)C)N(C)C(=O)[C@@H](C(C)C)NC(=O)[C@H](CC(C)C)N(C)C(=O)[C@@H](C)N(C)C1=O [Compound 23, [(2S,3R,4R)-3-Hydroxy-4-methyl-2-(methylamino)-7-(2-methylpyrazol-3-yl)-heptanoic acid]^1 [(R)-methyl-Sar]^3 cyclosporin A] |  | 
